Measured values published in ChEMBL document CHEMBL1124380, “Synthesis and cytostatic activity of geiparvarin analogues” (1989).
Converted amounts (≈) assume the structure as drawn.

Experiments:
Type in all cases: functional
CCRF-CEM = test: Ability to inhibit human CEM tumor cell proliferation by 50%; conditions: read-out: ID50 (the source's name)
H9 = test: Ability to inhibit human H9 tumor cell proliferation by 50%; conditions: read-out: ID50 (the source's name)
L1210 = test: Ability to inhibit murine L1210 tumor cell proliferation by 50%; conditions: Mus musculus, read-out: ID50 (the source's name)
FM3A = test: Ability to inhibit murine FM3A tumor cell proliferation by 50%; conditions: Mus musculus, read-out: ID50 (the source's name)
Raji = test: Ability to inhibit human Raji tumor cell proliferation by 50%; conditions: read-out: ID50 (the source's name)
MT4 = test: Ability to inhibit human MT-4 tumor cell proliferation by 50%; conditions: read-out: ID50 (the source's name)
[1] = Ability to inhibit human Molt/4F tumor cell proliferation by 50%; conditions: read-out: ID50 (the source's name)

| SMILES | IC50 (CCRF-CEM) | IC50 (H9) | IC50 (L1210) | IC50 (FM3A) | IC50 (Raji) | IC50 (MT4) | IC50 [1] |
| --- | --- | --- | --- | --- | --- | --- | --- |
| C/C(=C\COc1ccc2ccc(=O)oc2c1)C1=CC(=O)C2(CCCCC2)O1 | 2.72 µg/mL (≈ 7.42 µM) | 2.08 µg/mL (≈ 5.68 µM) | 1.82 µg/mL (≈ 4.97 µM) | 6.61 µg/mL (≈ 18 µM) | 5.43 µg/mL (≈ 14.8 µM) | 2.1 µg/mL (≈ 5.73 µM) | 12.7 µg/mL (≈ 34.7 µM) |
| CC(C)CC1=CC(=N)C(C)(C)O1.O=C(O)C(=O)O | > 100 µg/mL | > 100 µg/mL | > 100 µg/mL | 33.2 µg/mL | > 100 µg/mL | > 100 µg/mL | > 100 µg/mL |
| C/C(=C\COc1ccc2ccc(=O)oc2c1)C1=CC(=N)C(C)(C)O1 | 18.8 µg/mL (≈ 57.8 µM) | 21.7 µg/mL (≈ 66.7 µM) | 18.4 µg/mL (≈ 56.6 µM) | 20.7 µg/mL (≈ 63.6 µM) | 26 µg/mL (≈ 79.9 µM) | 8.77 µg/mL (≈ 27 µM) | 25.8 µg/mL (≈ 79.3 µM) |
| CCC1OC(/C(C)=C/COc2ccc3ccc(=O)oc3c2)=CC1=O (centres undefined) | 3.27 µg/mL (≈ 10 µM) | 4.1 µg/mL (≈ 12.6 µM) | 9.77 µg/mL (≈ 29.9 µM) | 17.2 µg/mL (≈ 52.7 µM) | 2.43 µg/mL (≈ 7.45 µM) | 1.63 µg/mL (≈ 4.99 µM) | 2.84 µg/mL (≈ 8.7 µM) |
| CCC1(C)OC(/C(C)=C/COc2ccc3ccc(=O)oc3c2)=CC1=O (centres undefined) | 2.49 µg/mL (≈ 7.32 µM) | 2.15 µg/mL (≈ 6.32 µM) | 2.05 µg/mL (≈ 6.02 µM) | 2.96 µg/mL (≈ 8.7 µM) | 2.59 µg/mL (≈ 7.61 µM) | 0.53 µg/mL (≈ 1.56 µM) | 3.02 µg/mL (≈ 8.87 µM) |
| O=C1C=C(c2ccccc2)OC1 | 30.2 µg/mL (≈ 189 µM) | 38.6 µg/mL (≈ 241 µM) | 45.8 µg/mL (≈ 286 µM) | 31.4 µg/mL (≈ 196 µM) | 50.1 µg/mL (≈ 313 µM) | 31.7 µg/mL (≈ 198 µM) | 31.2 µg/mL (≈ 195 µM) |
| C/C(=C\COc1ccc2ccc(=O)oc2c1)C1=CC(=N)C2(CCCCC2)O1 | 4.95 µg/mL (≈ 13.5 µM) | 14.2 µg/mL (≈ 38.9 µM) | 4.05 µg/mL (≈ 11.1 µM) | 15.8 µg/mL (≈ 43.2 µM) | 23.5 µg/mL (≈ 64.3 µM) | 4.93 µg/mL (≈ 13.5 µM) | 20.5 µg/mL (≈ 56.1 µM) |
| CC(C)CC1=CC(=N)C(C)(C)O1 | > 100 µg/mL | > 100 µg/mL | > 100 µg/mL | 33 µg/mL (≈ 197 µM) | > 100 µg/mL | > 100 µg/mL | > 100 µg/mL |
| C/C(=C\CO)CC1=CC(=O)C(C)(C)O1 | 10.3 µg/mL (≈ 52.5 µM) | 9.13 µg/mL (≈ 46.5 µM) | 15.8 µg/mL (≈ 80.5 µM) | 23.3 µg/mL (≈ 119 µM) | 16.6 µg/mL (≈ 84.6 µM) | 3.05 µg/mL (≈ 15.5 µM) | 15.2 µg/mL (≈ 77.5 µM) |
| CC1(C)OC(c2ccccc2)=CC1=N | > 100 µg/mL | > 100 µg/mL | 66.4 µg/mL (≈ 355 µM) | 24.7 µg/mL (≈ 132 µM) | > 100 µg/mL | 76.2 µg/mL (≈ 407 µM) | > 100 µg/mL |
| CCC1(C)OC(/C(C)=C/COc2ccc3ccc(=O)oc3c2)=CC1=N (centres undefined) | 3.57 µg/mL (≈ 10.5 µM) | 2.58 µg/mL (≈ 7.6 µM) | 4.71 µg/mL (≈ 13.9 µM) | 14.1 µg/mL (≈ 41.5 µM) | 17.9 µg/mL (≈ 52.7 µM) | 2.65 µg/mL (≈ 7.81 µM) | 3.17 µg/mL (≈ 9.34 µM) |
| CCCCCC1=CC(=N)C(C)(C)O1 | > 100 µg/mL | > 100 µg/mL | 98.3 µg/mL (≈ 542 µM) | 24.2 µg/mL (≈ 133 µM) | > 100 µg/mL | > 100 µg/mL | > 100 µg/mL |
| COc1ccccc1C1=CC(=O)C(C)(C)O1 | 66.1 µg/mL (≈ 303 µM) | 63.9 µg/mL (≈ 293 µM) | 40.4 µg/mL (≈ 185 µM) | 31.7 µg/mL (≈ 145 µM) | 89.1 µg/mL (≈ 408 µM) | 30.4 µg/mL (≈ 139 µM) | 53.3 µg/mL (≈ 244 µM) |
| C/C(=C\COc1ccc2ccc(=O)oc2c1)C1=CC(=O)C(C)O1 (centres undefined) | 3.56 µg/mL (≈ 11.4 µM) | 2.91 µg/mL (≈ 9.32 µM) | 7.05 µg/mL (≈ 22.6 µM) | 15.6 µg/mL (≈ 49.9 µM) | 10.4 µg/mL (≈ 33.3 µM) | 2.56 µg/mL (≈ 8.2 µM) | 3.32 µg/mL (≈ 10.6 µM) |
| COc1ccccc1C1=CC(=O)CO1 | > 100 µg/mL | 66.3 µg/mL (≈ 349 µM) | > 100 µg/mL | > 100 µg/mL | > 100 µg/mL | 44.4 µg/mL (≈ 233 µM) | > 100 µg/mL |
| CC1=CC(=N)C(c2ccccc2)(c2ccccc2)O1 | 29.3 µg/mL (≈ 118 µM) | 30 µg/mL (≈ 120 µM) | 24.2 µg/mL (≈ 97.1 µM) | 25.4 µg/mL (≈ 102 µM) | 24 µg/mL (≈ 96.3 µM) | 26.5 µg/mL (≈ 106 µM) | 25.3 µg/mL (≈ 101 µM) |
| C/C(=C\COc1ccc2ccc(=O)oc2c1)C1=CC(=O)C(C)(C)O1 [GEIPARVARIN] | 2 µg/mL (≈ 6.13 µM) | 1.97 µg/mL (≈ 6.04 µM) | 2.07 µg/mL (≈ 6.34 µM) | 3.2 µg/mL (≈ 9.81 µM) | 2.19 µg/mL (≈ 6.71 µM) | 0.32 µg/mL (≈ 0.981 µM) | 2.84 µg/mL (≈ 8.7 µM) |
